Assay results reported in patent US20230233576A1, “ECLITASERTIB FOR USE IN TREATING CONDITIONS INVOLVING SYSTEMIC HYPERINFLAMMATORY RESPONSE” (priority 2020, published 2023).

Tested on: laboratory markers of severe COVID-19 (D-dimer, leukocytes, lymphocytes, neutrophil to lymphocyte ratio, ferritin, LDH)
Assay: Phase 1b severe COVID-19 study: laboratory markers of severe COVID-19
Assay type: in vivo, human
Conditions: for D-Dimer relative change from baseline, RIPK1 Inhibitor vs placebo, point estimate / Ferritin relative change from baseline, RIPK1 Inhibitor vs placebo, point estimate / Lactate Dehydrogenase relative change from baseline, RIPK1 Inhibitor vs placebo, point estimate / Leukocytes relative change from baseline, RIPK1 Inhibitor vs placebo, point estimate / Lymphocytes relative change from baseline, RIPK1 Inhibitor vs placebo, point estimate / Neutrophils/Lymphocytes (RATIO) relative change from baseline, RIPK1 Inhibitor vs placebo, point estimate: MMRM; for D-Dimer relative change from baseline, RIPK1 Inhibitor vs placebo, point estimate / Ferritin relative change from baseline, RIPK1 Inhibitor vs placebo, point estimate / Lactate Dehydrogenase relative change from baseline, RIPK1 Inhibitor vs placebo, point estimate / Leukocytes relative change from baseline, RIPK1 Inhibitor vs placebo, point estimate / Lymphocytes relative change from baseline, RIPK1 Inhibitor vs placebo, point estimate / Neutrophils/Lymphocytes (RATIO) relative change from baseline, RIPK1 Inhibitor vs placebo, point estimate / D-Dimer: point estimate of the relative change from baseline (geometric mean) / D-Dimer: point estimate of the relative change from baseline displayed as percent change / Ferritin: point estimate of the relative change from baseline (geometric mean) / Ferritin: point estimate of the relative change from baseline displayed as percent change / Lactate Dehydrogenase: point estimate of the relative change from baseline (geometric mean) / Lactate Dehydrogenase: point estimate of the relative change from baseline displayed as percent change / Leukocytes: point estimate of the relative change from baseline (geometric mean) / Leukocytes: point estimate of the relative change from baseline displayed as percent change / Lymphocytes: point estimate of the relative change from baseline (geometric mean) / Lymphocytes: point estimate of the relative change from baseline displayed as percent change / Neutrophils/Lymphocytes (RATIO): point estimate of the relative change from baseline (geometric mean) / Neutrophils/Lymphocytes (RATIO): point estimate of the relative change from baseline displayed as percent change: LOCF, Efficacy population
From the text: For clinical assessment, the variables associated with endpoints were: • main inflammatory marker CRP • Oxygenation saturation and oxygen delivery (e.g. SpO2, SpO2/FiO2), Laboratory markers of severe COVID-19 including D-dimer, lactate dehydrogenase (LDH), ferritin and hematology laboratory (white blood cell count, differential blood lymphocytes, neutrophil to lymphocyte ratio) • Clinical status of participant (7-point ordinal scale) • Thrombolytic and vasopressor treatments
Other secondary clinical assessment endpoints included: • Number of Days without need for oxygen support and alive (oxygen saturation≥92% breathing room air) up to Day 28 • Numbers of Ventilator-free days and alive up to Day 28 • Change from baseline in markers of inflammation (White blood cell count, differential blood lymphocytes, neutrophil to lymphocyte ratio, IL-6) and D-Dimer at Day 7 and EOT • Incidence of Deaths up to Day 28 • Percentage of participants receiving thrombolytic treatment up to Day 28 • Percentage of participants receiving vasopressor treatment up to Day 28 • Numbers of Respiratory Failure-Free Days (RFFD) and alive up to Day 28
Exploratory clinical assessments endpoints included: • Change from baseline in ferritin and LDH at Day 7 and EOT • Proportion of participants per category of the 7-point clinical scale at EOT • Time to improvement by 2 points in category of 7-point clinical scale • Quantitative SARS-COV-2 viral load in blood at baseline and on Day 3, 5, 7 and EOT
The relative changes from baseline in laboratory markers of severe COVID-19 were analyzed for the two treatment groups and for the treatment comparison of RIPK1 Inhibitor versus placebo, at Day 7 and EOT (Table 22, Table 23, Table 24). See also FIGS. 14, 15, 16, 17, 18, and 19.

CN1C(=O)[C@@H](NC(=O)c2nnc(Cc3ccccc3)[nH]2)COc2cccnc21 [RIPK1 Inhibitor, (S)-5-benzyl-N-(5-methyl-4-oxo-2,3,4,5-tetrahydropyrido[3,2-b][1,4]oxazepin-3-yl)-4H-1,2,4-triazole-3-carboxamide]
D-Dimer relative change from baseline, RIPK1 Inhibitor vs placebo, point estimate (600 mg, Day 7): 0.88
Ferritin relative change from baseline, RIPK1 Inhibitor vs placebo, point estimate (600 mg, Day 7): 0.96
Lactate Dehydrogenase relative change from baseline, RIPK1 Inhibitor vs placebo, point estimate (600 mg, Day 7): 0.80
Leukocytes relative change from baseline, RIPK1 Inhibitor vs placebo, point estimate (600 mg, Day 7): 0.87
Lymphocytes relative change from baseline, RIPK1 Inhibitor vs placebo, point estimate (600 mg, Day 7): 1.02
Neutrophils/Lymphocytes (RATIO) relative change from baseline, RIPK1 Inhibitor vs placebo, point estimate (600 mg, Day 7): 0.65
difference with RIPK1 Inhibitor versus placebo for ferritin (600 mg, Day 7 and EOT): No differences
D-Dimer relative change from baseline, RIPK1 Inhibitor vs placebo, point estimate (600 mg, EOT): 1.07
Ferritin relative change from baseline, RIPK1 Inhibitor vs placebo, point estimate (600 mg, EOT): 0.98
Lactate Dehydrogenase relative change from baseline, RIPK1 Inhibitor vs placebo, point estimate (600 mg, EOT): 0.85
Leukocytes relative change from baseline, RIPK1 Inhibitor vs placebo, point estimate (600 mg, EOT): 1.03
Lymphocytes relative change from baseline, RIPK1 Inhibitor vs placebo, point estimate (600 mg, EOT): 1.03
Neutrophils/Lymphocytes (RATIO) relative change from baseline, RIPK1 Inhibitor vs placebo, point estimate (600 mg, EOT): 0.67
D-Dimer: point estimate of the relative change from baseline (geometric mean) (Day 03): 1.00
D-Dimer: point estimate of the relative change from baseline displayed as percent change (Day 03): −0.31%
Ferritin: point estimate of the relative change from baseline (geometric mean) (Day 03): 3.43
Ferritin: point estimate of the relative change from baseline displayed as percent change (Day 03): 242.68%
Lactate Dehydrogenase: point estimate of the relative change from baseline (geometric mean) (Day 03): 2.42
Lactate Dehydrogenase: point estimate of the relative change from baseline displayed as percent change (Day 03): 141.68%
Leukocytes: point estimate of the relative change from baseline (geometric mean) (Day 03): 6.10
Leukocytes: point estimate of the relative change from baseline displayed as percent change (Day 03): 509.93%
Lymphocytes: point estimate of the relative change from baseline (geometric mean) (Day 03): 1.35
Lymphocytes: point estimate of the relative change from baseline displayed as percent change (Day 03): 34.70%
Neutrophils/Lymphocytes (RATIO): point estimate of the relative change from baseline (geometric mean) (Day 03): 2.01
Neutrophils/Lymphocytes (RATIO): point estimate of the relative change from baseline displayed as percent change (Day 03): 100.80%
D-Dimer: point estimate of the relative change from baseline (geometric mean) (Day 05): 1.04
D-Dimer: point estimate of the relative change from baseline displayed as percent change (Day 05): 4.10%
Ferritin: point estimate of the relative change from baseline (geometric mean) (Day 05): 2.91
Ferritin: point estimate of the relative change from baseline displayed as percent change (Day 05): 191.34%
Lactate Dehydrogenase: point estimate of the relative change from baseline (geometric mean) (Day 05): 2.23
Lactate Dehydrogenase: point estimate of the relative change from baseline displayed as percent change (Day 05): 122.59%
Leukocytes: point estimate of the relative change from baseline (geometric mean) (Day 05): 6.14
Leukocytes: point estimate of the relative change from baseline displayed as percent change (Day 05): 513.77%
Lymphocytes: point estimate of the relative change from baseline (geometric mean) (Day 05): 1.43
Lymphocytes: point estimate of the relative change from baseline displayed as percent change (Day 05): 42.51%
Neutrophils/Lymphocytes (RATIO): point estimate of the relative change from baseline (geometric mean) (Day 05): 1.89
Neutrophils/Lymphocytes (RATIO): point estimate of the relative change from baseline displayed as percent change (Day 05): 89.49%
D-Dimer: point estimate of the relative change from baseline (geometric mean) (Day 07): 0.96
D-Dimer: point estimate of the relative change from baseline displayed as percent change (Day 07): −3.52%
Ferritin: point estimate of the relative change from baseline (geometric mean) (Day 07): 2.80
Ferritin: point estimate of the relative change from baseline displayed as percent change (Day 07): 179.61%
Lactate Dehydrogenase: point estimate of the relative change from baseline (geometric mean) (Day 07): 2.10
Lactate Dehydrogenase: point estimate of the relative change from baseline displayed as percent change (Day 07): 110.26%
Leukocytes: point estimate of the relative change from baseline (geometric mean) (Day 07): 6.15
Leukocytes: point estimate of the relative change from baseline displayed as percent change (Day 07): 514.60%
Lymphocytes: point estimate of the relative change from baseline (geometric mean) (Day 07): 1.52
Lymphocytes: point estimate of the relative change from baseline displayed as percent change (Day 07): 51.69%
Neutrophils/Lymphocytes (RATIO): point estimate of the relative change from baseline (geometric mean) (Day 07): 1.74
Neutrophils/Lymphocytes (RATIO): point estimate of the relative change from baseline displayed as percent change (Day 07): 74.47%
D-Dimer: point estimate of the relative change from baseline (geometric mean) (Day 15): 0.96
D-Dimer: point estimate of the relative change from baseline displayed as percent change (Day 15): −3.71%
Ferritin: point estimate of the relative change from baseline (geometric mean) (Day 15): 2.66
Ferritin: point estimate of the relative change from baseline displayed as percent change (Day 15): 166.34%
Lactate Dehydrogenase: point estimate of the relative change from baseline (geometric mean) (Day 15): 2.05
Lactate Dehydrogenase: point estimate of the relative change from baseline displayed as percent change (Day 15): 104.58%
Leukocytes: point estimate of the relative change from baseline (geometric mean) (Day 15): 6.60
Leukocytes: point estimate of the relative change from baseline displayed as percent change (Day 15): 560.21%
Lymphocytes: point estimate of the relative change from baseline (geometric mean) (Day 15): 1.63
Lymphocytes: point estimate of the relative change from baseline displayed as percent change (Day 15): 63.48%
Neutrophils/Lymphocytes (RATIO): point estimate of the relative change from baseline (geometric mean) (Day 15): 1.66
Neutrophils/Lymphocytes (RATIO): point estimate of the relative change from baseline displayed as percent change (Day 15): 65.55%
